Assay results as given in patent publication US7511123B2, “Immuno-interactive fragments of the alpha-C subunit of inhibin” (Prince Henry's Institute of Medical Research, priority 1999, dated 2009).

Assays:
As #128 [1] = test: RIA (Assay 2): competition with iodinated inhibin for As #128; format: binding, sheep; conditions: for As#128 ED50: biotinylated peptides, 50% fall in binding of iodinated inhibin
Description: (§1) This assay was used to determine which peptides compete with iodinated 30 kDa inhibin for As #41, #128 and #1989 (used in the original inhibin RIA, Lapphorn et al., 1989, supra) in a RIA format. This assay identifies those peptides that bind to inhibin-binding antibodies in the antiserum and provides a stricter affinity and specificity assessment in identifying the appropriate epitopes than that found with Assay 1. The competition between peptide and hr-inhibin (used as the standard) was assessed from their ED50 values. The RIA consisted of the competition of iodinated inhibin and either hr-inhibin reference preparation, individual peptides or pools from the 4 peptide regions, with As #41, #128 and in some instances, As #1989. The peptides/inhibin/iodinated inhibin and antisera (at a prescribed dilution) were incubated overnight at 4° C. using standard methodologies. The antibody-bound iodinated inhibin was immunoprecipitated with the addition of an anti-sheep IgG serum raised in goats and the radioactivity was measured in a gamma counter. The concentration of peptide that gives a 50% fall in binding of iodinated inhibin (ED50) was determined and this value was used to give a measure of the affinity of the peptide for the antiserum. This methodology consisted of determining the ED50 of the peptide in the RIA using iodinated human recombinant inhibin as tracer with either As #41, As #128 or As #1989 and graded doses of either hr-inhibin or peptide as described in Example 2.

As #1989 = test: RIA (Assay 2): competition with iodinated inhibin for As #1989; format: binding, rabbit; conditions: for As#1989 ED50: biotinylated peptides, 50% fall in binding of iodinated inhibin
Description: as §1

As #41 = test: RIA (Assay 2): competition with iodinated inhibin for As #41; format: binding, sheep; conditions: for As#41 ED50: biotinylated peptides, 50% fall in binding of iodinated inhibin
Description: as §1

As #128 [2] = test: Competitive 2-site assay (Assay 3), approach (a); format: binding, sheep; design: key: +++++ major contribution; + minor contribution; conditions: relative contribution
Description: This assay was developed to establish the relative importance of the individual peptides and peptide pools (identified as epitopes in Assays 1 and 2) in the sandwich antibody format used in the IFMA with As #128 as capture antibody and As #41 as detection antibody. Two approaches (a and b) were considered, Approach (a) explores the cross-reaction of peptides with inhibin for the immobilized As #128 while Approach (b) assesses their cross-reaction with inhibin for As #41.
Approach (a). The biotinylated peptide pools and/or individual peptides at various concentrations, in combination with a fixed concentration of hr-inhibin, were incubated for 2 hours with As #128-coated plates. The plates were then washed to remove any unbound material. Iodinated As #41 was then added to bind to the bound hr-inhibin, the plates washed and the bound radioactivity was measured in a gamma counter. The counts measured were proportional to the amount of hr-inhibin bound to both antisera. The possibility that a peptide contained two epitopes capable of linking As #128 and #41 was assessed in the absence of added hr-inhibin.

As #128 [3] = test: Solid phase assay (Assay 1): biotinylated peptides binding to As #128; design: species or system sheep; key: +++++ major contribution; + minor contribution; conditions: relative contribution
Protocol: This assay is a broad screen of the binding of the 31 biotinylated peptides to As #41 and #128 as recommended by Chiron Mimotopes.
The biotinylated peptides were initially bound to streptavidin-coated 96-well plates (2 hours at room temperature), antiserum #41 or #128 was then added (2 hours room temperature) to bind to the peptides. Detection of antiserum binding was assessed by a further incubation with an anti-ovine IgG serum labeled with the enzyme, horseradish peroxidase. The enzyme activity was assessed by conversion of a colorless substrate to a colored product that is detected in a spectrophotometer. The enzyme activity measured was proportional to the extent of the binding of the peptides.

PO#23-R1 = test: Cross-reaction of inhibin-related proteins in 23-R1 ELISA; format: binding, mouse; conditions: relative to rh inhibin A standard (=100); average of two experiments
Protocol: (§2) An ELISA system using 96-well microtiter plates was developed consisting of one alpha subunit antibody as coating antibody and an alkaline phosphatase-linked second antibody as label. The alkaline phosphatase activity was amplified using an ELISA amplification kit (Gibco, Life Technologies, Rockville Md., USA). The plate was initially coated with monoclonal antibody at 2 micrograms/well in 0.1 M bicarbonate buffer pH 9.4 overnight at room temperature and blocked with 50 mM TRIS/HCl, 1% bovine serum albumin (BSA) pH 7.4.
(§3) The ELISAs in application to non-serum samples consisted of 100 microliters sample or recombinant human (rh) inhibin A standard (provided by National Institute of Biological Standards and Control, Potters Bar, Herts, UK) in assay buffer (100 mM TRIS/HCl, 154 mM NaCl, 5% Triton-X-100, 10% BSA pH, 7.5) and 100 microliters assay buffer. In the assay of serum, the inhibin A standard (100 microliters) was diluted in assay buffer. Inhibin-free serum (100 microliters) was also added to make a total well volume of 200 microliters. The inhibin-free serum was obtained by incubating serum with an immobilized inhibin alpha subunit antibody. […] Serum samples were initially boiled in the presence of SDS (2% final concentration) and diluted 1:1 with assay buffer before adding 100 microliters to the wells. The inhibin-free serum and the SDS boiling steps were included to offset any potential matrix effects of serum known to affect other inhibin ELISAs although the need for these specific steps had not been assessed.
(§4) The plate was incubated with shaking overnight at room temperature. The wells were washed, and alkaline phosphatase (AP)-linked antibody added, incubated with shaking for 3 hours at room temperature and washed again. The substrate (NADPH, Gibco) was added and the plate incubated for 2 hours with shaking at room temperature. The amplifying enzymes (alcohol dehydrogenase and diaphorase, Gibco) were added and incubated for 5-15 min until appropriate color had developed. The plate was read at 490/630 nm on an ELISA plate reader.
(§5) The specificity of the ELISAs was assessed by determining the cross-reaction of inhibin-related proteins in the various ELISAs.

PO#14-R1 = test: Cross-reaction of inhibin-related proteins in 14-R1 ELISA; format: binding, mouse; conditions: relative to rh inhibin A standard (=100); average of two experiments
Protocol: as §2, §3, §4, §5

PO#14 + PO#23-R1 = test: Cross-reaction of inhibin-related proteins in 14 + 23-R1 ELISA; format: binding, mouse; conditions: relative to rh inhibin A standard (=100); average of two experiments
Protocol: as §2, §3, §4, §5
As a result of an initial characterization of these ELISAs (see below), a combination of PO#14+PO#23 as coating antibodies and AP linked-R1 antibody as tracer was also assessed and its characteristics are also presented in Table 11 and 12 and FIG. 10c.

[4] = non-biotinylated peptides, hr-inhibin A as standard

Molecule	As#128 ED50 (As #128 [1]) [nmol/mL]	As#1989 ED50 (As #1989) [nmol/mL]	As#41 ED50 (As #41) [nmol/mL]	also measured
SGSG ELGWERWIVYPPSF [Peptide 13]	>10	>2.5	>10	
SGSG VYPPSFIFHYCHGG [Peptide 15]	>10	>2.5	>10	
SGSG NCHRVALNISFQEL [Peptide 10]	>10	>2.5	>10	
SGSG VALNISFQELGWER [Peptide 11]	>10	>2.5	>10	
Hr-inhibin: human recombinant 30 kDa inhibin A [reference compound]				ED50 values As#128 (As #128 [1]; [4]): 2 nM; ED50 values As#1989 (As #1989; [4]): 100 pM; ED50 values As#41 (As #41; [4]): 2 to 8000 nM
SGSG SFIFHYCHGGCGLH [Peptide 16]	>10	>2.5	>10	
SGSG PEEPAAHANCHRVA [Peptide 8]	4.8	>2.5	>10	
SGSG HYCHGGCGLHIPPN [Peptide 17]	10	>2.5	1.05	
SGSG ERWIVYPPSFIFHY [Peptide 14]	>10	>2.5	>10	
SGSG LQRPPEEPAAHANC [Peptide 7]	1.6	>2.5	1.25	#128 2-site competitive assay Assay 3 (As #128 [2]): +; #128 Antibody screen Assay 1 (As #128 [3]): +
SGSG LPVPGAPPTPAQPY [Peptide 21]	0.156	>2.5	1	
SGSG PLHVRTTSDGGYSF [Peptide 29]	0.156	>2.5	5	
SGSG GGCGLHIPPNLSLP [Peptide 18]	0.06	>2.5	1.05	#128 2-site competitive assay Assay 3 (As #128 [2]): +; #128 Antibody screen Assay 1 (As #128 [3]): +
SGSG LHIPPNLSLPVPGA [Peptide 19]	<0.01	>2.5	2.1	#128 2-site competitive assay Assay 3 (As #128 [2]): +; #128 Antibody screen Assay 1 (As #128 [3]): +
SGSG SFKYETVPNLLTQH [Peptide 32]	2.5	>2.5	0.29	
SGSG AAHANCHRVALNIS [Peptide 9]	>10	>2.5	>10	
SGSG ISFQELGWERWIVY [Peptide 12]	>10	>2.5	>10	
rh-inhibin B: recombinant human inhibin B (protein, UniProt P05111 233-366; P09529 293-407, looked up) Inhibin alpha chain: STPLMSWPWSPSALRLLQRPPEEPAAHANCHRVALNISFQELGWERWIVYPPSFIFHYCHGGCGLHIPPNLSLPVPGAPPTPAQPYSLLPGAQPCCAALPGTMRPLHVRTTSDGGYSFKYETVPNLLTQHCACI Inhibin beta B chain: GLECDGRTNLCCRQQFFIDFRLIGWNDWIIAPTGYYGNYCEGSCPAYLAGVPGSASSFHTAVVNQYRMRGLNPGTVNSCCIPTKLSTMSMLYFDDEYNIVKRDVPNMIVEECGCA				23-R1 ELSIA specificity (PO#23-R1): 253; 14-R1 ELISA specificity (PO#14-R1): 320; 14 + 23-R1 ELISA specificity (PO#14 + PO#23-R1): 138
rh-inhibin A: recombinant human inhibin A standard (protein) chain 1: STPLMSWPWSPSALRLLQRPPEEPAAHANCHRVALNISFQELGWERWIVYPPSFIFHYCHGGCGLHIPPNLSLPVPGAPPTPAQPYSLLPGAQPCCAALPGTMRPLHVRTTSDGGYSFKYETVPNLLTQHCACI chain 2: GLECDGKVNICCKKQFFVSFKDIGWNDWIIAPSGYHANYCEGECPSHIAGTSGSSLSFHSTVINHYRMRGHSPFANLKSCCVPTKLRPMSMLYYDDGQNIIKKDIQNMIVEECGCS				23-R1 ELSIA specificity (PO#23-R1): 100; 14-R1 ELISA specificity (PO#14-R1): 100; 14 + 23-R1 ELISA specificity (PO#14 + PO#23-R1): 100
rh-activin A: recombinant human activin A (protein, UniProt P08476 311-426, looked up) Inhibin beta A chain: GLECDGKVNICCKKQFFVSFKDIGWNDWIIAPSGYHANYCEGECPSHIAGTSGSSLSFHSTVINHYRMRGHSPFANLKSCCVPTKLRPMSMLYYDDGQNIIKKDIQNMIVEECGCS				23-R1 ELSIA specificity (PO#23-R1): <0.2; 14-R1 ELISA specificity (PO#14-R1): <0.2; 14 + 23-R1 ELISA specificity (PO#14 + PO#23-R1): <0.2
Pro-(alpha)C: preparation provided as standard in Pro-(alpha)C ELISA by Oxford Bio-innovations Ltd, UK (protein) CQGLELARELVLAKVRALFLDALGPPAVTREGGDPGVRRLPRRHALGGFTHRGSEPEEEEDVSQAILFPATDASCEDKSAARGLAQEAEEGLFRYMFRPSQHTRSRQVTSAQLWFHTGLDRQGTAASNSSEPLLGLLALSPGGPVAVPMSLGHAPPHWAVLHLATSALSLLTHPVLVLLLRCPLCTCSARPEATPFLVAHTRTRPPSGGERARRSTPLMSWPWSPSALRLLQRPPEEPAAHANCHRVALNISFQELGWERWIVYPPSFIFHYCHGGCGLHIPPNLSLPVPGAPPTPAQPYSLLPGAQPCCAALPGTMRPLHVRTTSDGGYSFKYETVPNLLTQHCACI				23-R1 ELSIA specificity (PO#23-R1): 41.5; 14-R1 ELISA specificity (PO#14-R1): 98.5; 14 + 23-R1 ELISA specificity (PO#14 + PO#23-R1): 38.5
